How the values were obtained:
Type in all cases: functional
Medicago sativa = test: Herbicidal activity against Medicago sativa (alfalfa) assessed as inhibition of seedlings growth after 5 days
Lepidium sativum = test: Herbicidal activity against Lepidium sativum assessed as inhibition of seedlings growth after 2 days
[Chlorella] fusca [1] = Antimicrobial activity against 'Chlorella' fusca at 1 mg by agar diffusion test; conditions: Scenedesmus fuscus; read-out: IZ
Mycotypha microspora [2] = test: Antimicrobial activity against Mycotypha microspora at 1 mg by agar diffusion test; conditions: read-out: IZ
Microbotryum violaceum [3] = test: Antimicrobial activity against Microbotryum violaceum at 1 mg by agar diffusion test; conditions: read-out: IZ
Priestia megaterium [4] = test: Antimicrobial activity against Bacillus megaterium at 1 mg by agar diffusion test; conditions: read-out: IZ
Escherichia coli [5] = test: Antimicrobial activity against Escherichia coli at 1 mg by agar diffusion test; conditions: read-out: IZ
[6] = tested on: Aspergillus pseudoglaucus; test: Antimicrobial activity against Eurotium repens at 1 mg by agar diffusion test; conditions: read-out: IZ
[Chlorella] fusca [7] = Antimicrobial activity against 'Chlorella' fusca at 0.9 mg by agar diffusion test; conditions: Scenedesmus fuscus; read-out: IZ
[8] = tested on: Aspergillus pseudoglaucus; test: Antimicrobial activity against Eurotium repens at 0.9 mg by agar diffusion test; conditions: read-out: IZ
Mycotypha microspora [9] = test: Antimicrobial activity against Mycotypha microspora at 0.9 mg by agar diffusion test; conditions: read-out: IZ
Microbotryum violaceum [10] = test: Antimicrobial activity against Microbotryum violaceum at 0.9 mg by agar diffusion test; conditions: read-out: IZ
Escherichia coli [11] = test: Antimicrobial activity against Escherichia coli at 0.9 mg by agar diffusion test; conditions: read-out: IZ
Priestia megaterium [12] = test: Antimicrobial activity against Bacillus megaterium at 0.9 mg by agar diffusion test; conditions: read-out: IZ
[Chlorella] fusca [13] = Antimicrobial activity against 'Chlorella' fusca at 1.2 mg by agar diffusion test; conditions: Scenedesmus fuscus; read-out: IZ
[14] = tested on: Aspergillus pseudoglaucus; test: Antimicrobial activity against Eurotium repens at 1.2 mg by agar diffusion test; conditions: read-out: IZ
Mycotypha microspora [15] = test: Antimicrobial activity against Mycotypha microspora at 1.2 mg by agar diffusion test; conditions: read-out: IZ
Microbotryum violaceum [16] = test: Antimicrobial activity against Microbotryum violaceum at 1.2 mg by agar diffusion test; conditions: read-out: IZ
Escherichia coli [17] = test: Antimicrobial activity against Escherichia coli at 1.2 mg by agar diffusion test; conditions: read-out: IZ
Priestia megaterium [18] = test: Antimicrobial activity against Bacillus megaterium at 1.2 mg by agar diffusion test; conditions: read-out: IZ

Compound	growth inhibition (GI) (Medicago sativa) [%]	growth inhibition (GI) (Lepidium sativum) [%]	zone of inhibition at 1000 µg/disc ([Chlorella] fusca [1]) [mm]	zone of inhibition at 1000 µg/disc (Mycotypha microspora [2]) [mm]	zone of inhibition at 1000 µg/disc (Microbotryum violaceum [3]) [mm]	zone of inhibition at 1000 µg/disc (Priestia megaterium [4]) [mm]	zone of inhibition at 1000 µg/disc (Escherichia coli [5]) [mm]	zone of inhibition at 1000 µg/disc [6] [mm]	zone of inhibition at 900 µg/disc ([Chlorella] fusca [7]) [mm]	zone of inhibition at 900 µg/disc [8] [mm]	zone of inhibition at 900 µg/disc (Mycotypha microspora [9]) [mm]	zone of inhibition at 900 µg/disc (Microbotryum violaceum [10]) [mm]	zone of inhibition at 900 µg/disc (Escherichia coli [11]) [mm]	zone of inhibition at 900 µg/disc (Priestia megaterium [12]) [mm]	zone of inhibition at 1200 µg/disc ([Chlorella] fusca [13]) [mm]	zone of inhibition at 1200 µg/disc [14] [mm]	zone of inhibition at 1200 µg/disc (Mycotypha microspora [15]) [mm]	zone of inhibition at 1200 µg/disc (Microbotryum violaceum [16]) [mm]	zone of inhibition at 1200 µg/disc (Escherichia coli [17]) [mm]	zone of inhibition at 1200 µg/disc (Priestia megaterium [18]) [mm]
C=C1C(=O)O[C@H]2C(=O)O[C@H](CC)[C@@H]12 [4-EPI-ETHIOSOLIDE]	100	100	3	6	10	5	5													
C/C=C/C1=C(Cl)C(=O)[C@@H](Cl)[C@@]1(O)C(=O)OC [(+)-CRYPTOSPORIPSIN]	100	100	0	17	15	5	3	16												
C[C@@H]1Cc2cccc(O)c2C(=O)O1 [(-)-(R)-MELLEIN]	100	100							14	6	0	8	2	2						
C/C=C(\Cl)C1=CC(=O)[C@@]23C[C@@H]2C(C)(C)O[C@@]3(O)C1=O [(-)-MYCORRHIZIN A]	100	100													3	14	10	14	3	8
